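Grown in 96-well plates, cells were treated for 48 hours with each compound at five concentrations. Insufficient inhibition: endpoint recorded as highest concentration tested. Here, GI50 denotes the concentration required for 50% inhibition of growth. TGI denotes the concentration required for complete inhibition of growth.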

The text below walks through data of PubChem BioAssay (NCI).

Holding throughout (assay): NCI tumour cell line growth inhibition, 48 h
Test [1] concerns HT29 colon.
The subject of test [2] is OVCAR-4 ovarian.
Test [3] has as its system UACC-257 melanoma.
Test [4] has as its system UACC-62 melanoma.
The subject of test [5] is NCI/ADR-RES ovarian.
In test [6] the test system is TK-10 renal.
Test [7] concerns NCI-H522 lung.
The test system of test [8] is SK-MEL-5 melanoma.
Test [9] deals with EKVX NSCLC.
Test [10] deals with K-562 leukemia.

Consider `CN(C)C/C=C/C(=O)Nc1cc2c(Nc3cccc(Cl)c3F)ncnc2cc1OCCOC(F)F`, for which the GI50 in test [1] is 1.31 µM; in [2], 1.5 µM; in [3], 3.59 µM; in [4] it was 1.86 µM; in test [5], 0.771 µM; in test [6] it was < 0.01 µM. Further, the GI50 in [7] was 0.0289 µM; in [8], 2.46 µM; in [10], 0.939 µM. For the same compound, the TGI in test [1] turned out to be 10.6 µM; in test [2], 11.6 µM; in test [3], 15.5 µM; in test [4] it was 11.1 µM; in test [5], 7.74 µM; in test [6], 1.3 µM. Besides, the TGI in test [7] stood at 2.04 µM; in test [8] it was 7.87 µM; in test [9], 6.1 µM; in test [10], 11.6 µM.
With `OCC1OC(n2cnc3c(NCc4ccccc4O)ncnc32)C(O)C1O` (centres undefined), the GI50 in test [1] is 2.23 µM; in test [2] it was 0.294 µM; in test [3] it was > 83.6 µM; in test [4], 1.27 µM; in [5], 0.435 µM; in test [6] it was 0.322 µM. Also, the GI50 in test [7] was 0.0939 µM; in [8] it was 1.84 µM; in test [9] it was 1.03 µM; in test [10] it was 0.634 µM. The TGI in test [1] is 52.9 µM; in test [2], 8.14 µM; in test [3], > 100 µM; in test [4] it was 24.2 µM; in [5] it was 24.4 µM; in [6], > 52.6 µM. Also, the TGI is 1.54 µM in test [7], 15.3 µM in [8], > 100 µM in test [9] and > 100 µM in [10].
For the compound `C/C(=N\NC(=S)N1CCN(c2ccccn2)CC1)c1cccc2cccnc12`, the TGI in test [1] is 21.2 µM; in test [2], > 100 µM; in test [3], > 100 µM; in test [4], 27.8 µM; in [5], 15.4 µM; in test [6], > 100 µM. In addition, the TGI in test [7] is 9.63 µM; in test [8] it was > 43.2 µM; in test [9], > 45.3 µM; in test [10], > 100 µM.
With `Oc1ccc(/C=N/NC(=S)Nc2cccnc2)nc1`, the TGI in [1] was > 100 µM; in [2], > 100 µM; in [3], 76.9 µM; in test [4] it was 29.3 µM; in [5], 9.59 µM; in [6], > 25.7 µM. The TGI was 21.7 µM in test [7], > 100 µM in test [8], > 100 µM in [9] and > 23.1 µM in test [10].
Regarding `Nc1cc(N)c2nc(-c3ccccc3)c(NCc3ccc(Cl)c(Cl)c3)nc2c1`, the GI50 is 11.7 µM in [2]; 4.53 µM in test [3]; 14 µM in [4]; 17.4 µM in test [5]; 12.8 µM in test [6]; 2.05 µM in test [7]. Also, the GI50 in [8] was 3.48 µM; in [9], 10.9 µM; in [10], 3.09 µM. Further, the TGI in [2] was > 100 µM; in [3] it was 15.7 µM; in test [4], 30.8 µM; in [5] it was 45.6 µM; in [6], 30.5 µM; in test [7], 4.91 µM. In addition, the TGI in test [8] amounted to 10.7 µM; in test [9], 38.7 µM; in test [10] it was 17.8 µM.
For `O=C(O)c1cc(Cl)cc(Cc2cc(Cl)cc(C(=O)O)c2O)c1O`, the TGI in test [1], in test [2], in [4], in test [5], in [6] and in [7] was > 100 µM throughout. For the same compound, the TGI in test [8], in test [9] and in test [10] was > 100 µM each time.
In the case of `Cc1ccc(/C(=C/C=C(C#N)C#N)Sc2nc3ccccc3s2)cc1`, the GI50 in test [2] is 6.68 µM; in test [3] it was 12.1 µM; in [4] it was 2.6 µM; in test [5] it was 4.24 µM; in test [6], 2.42 µM; in test [7], 7.36 µM. For the same compound, the figures for the GI50 in test [8], in test [9] and in test [10] were 13.3 µM, 17.7 µM and 6.25 µM, respectively. The TGI is 87.6 µM in test [2]; 27.3 µM in test [3]; 6.22 µM in [4]; 18.7 µM in [5]; 6.37 µM in [6]; 32.9 µM in [7]. Besides, the results for the TGI in [8], in test [9] and in [10] were 26.6 µM, 39.4 µM and > 100 µM, respectively.
For the compound `CCCCNCCCCCNc1cc(OC)cc2cccnc12`, the GI50 in [2] was 26.2 µM; in test [3], 16.1 µM; in test [4], 19.9 µM; in test [5], 17.2 µM; in test [6], 23.4 µM; in [7], 17.5 µM. In addition, the results for the GI50 in test [8], in test [9] and in test [10] were 12.6 µM, 29.6 µM and 20.4 µM, respectively. Moreover, the TGI is > 100 µM in [2]; 32.2 µM in test [3]; 40.3 µM in test [4]; 36.4 µM in test [5]; 44.5 µM in test [6]; 33.8 µM in [7]. Moreover, the TGI was 27.6 µM in [8], 99.2 µM in [9] and 44.8 µM in test [10].
Regarding `CCOP(=O)(OCC)C(NC(c1ccccc1)c1ccccc1)c1ccc(C(C)C)cc1` (centres undefined), the GI50 in test [1] was 6.27 µM; in test [2], 2.57 µM; in test [4], 10.4 µM; in test [5], 2.14 µM; in [6], 3.32 µM; in test [7] it was 6.98 µM. The GI50 in test [8] was 3.35 µM; in test [9], 6.01 µM; in test [10], 3.48 µM. Besides, the TGI in test [1] amounted to 42.1 µM; in [2] it was 64.8 µM; in [4] it was 22.9 µM; in [5] it was 7.52 µM; in test [6], 14.4 µM; in test [7] it was 29.6 µM. In addition, the TGI in test [8] turned out to be 7.86 µM; in test [9], 20.4 µM; in test [10], 14.8 µM.
Regarding `O=C(CC1Sc2ccccc2NC1=O)NNc1ccc(F)cc1` (centres undefined), the GI50 in test [1] was > 100 µM; in test [2], > 100 µM; in [4], 6.94 µM; in [5], 22.5 µM; in test [6] it was > 100 µM; in test [7], 9.39 µM. Besides, the GI50 is 46.1 µM in test [8], > 100 µM in test [9] and 4.67 µM in test [10]. The TGI in test [1], in test [2], in [4], in test [5], in test [6] and in test [7] was > 100 µM in each case. The TGI in test [8], in test [9] and in [10] was > 100 µM each time.
For `CC[Si](CC)(CC)OC1[C@@H](O[Si](CC)(CC)CC)[C@@H](CNC(=O)NC)O[C@H]1n1cnc2c(NC(=O)Nc3ccccc3)ncnc21` (some centres undefined), the GI50 in [1] is 2.4 µM; in test [2], 3.41 µM; in [3], 2.81 µM; in test [4], 2.88 µM; in test [5] it was 3.96 µM; in test [6] it was 2.65 µM. Also, the GI50 in test [7] was 3.83 µM; in [8], 2.01 µM; in [10] it was 3.49 µM. The TGI in test [1] is 6.13 µM; in test [2] it was > 100 µM; in [3], 55.8 µM; in test [4], 25.7 µM; in test [5], > 100 µM; in [6], 9.88 µM. Further, the TGI was 78.5 µM in [7], 4.02 µM in test [8] and > 100 µM in test [10].
As for `Nc1nc(N)c(-c2ccc(Cl)c(Cl)c2)c(CP(Cl)(Cl)(Cl)Br)n1`, the GI50 was 6.14 µM in [1]; 53.8 µM in test [2]; 8.35 µM in [3]; 6.4 µM in test [4]; 11.7 µM in [5]; 29.6 µM in [6]. Further, the GI50 is 21.2 µM in [7], 6.72 µM in test [8] and 2.79 µM in test [10]. Moreover, the TGI in test [1] was > 100 µM; in test [2], > 100 µM; in test [3] it was 84.7 µM; in [4], 32.2 µM; in [5], > 100 µM; in test [6] it was > 100 µM. The TGI is > 100 µM in [7], 56.6 µM in [8] and > 100 µM in test [10].
Regarding `CC(=N/NC(N)=S)/C(C)=N/NC(N)=S`, the TGI in [1], in test [3], in test [4], in [5], in test [6] and in test [7] was > 100 µM throughout. Moreover, the TGI in test [8], in test [9] and in test [10] was > 100 µM throughout.
In the case of `Cn1cc(-c2nc(-c3cn(C)c4ncccc34)cs2)c2ccccc21`, the GI50 in [3] is 3.61 µM; in test [4], 1.35 µM; in [5] it was 0.62 µM; in test [6], 2.4 µM; in [7] it was 0.402 µM; in test [8], 0.842 µM. Moreover, the GI50 in test [9] was 1.77 µM; in test [10], 0.412 µM. Moreover, the TGI was > 100 µM in test [3]; > 100 µM in test [4]; > 100 µM in test [5]; 11.6 µM in [6]; 11.9 µM in test [7]; 3.06 µM in [8]. The TGI in test [9] and in test [10] was > 100 µM each time.
